Source: patent US10485844B2, “Methods for treating severe atopic dermatitis by administering an IL-4R inhibitor” (Regeneron Pharmaceuticals, Inc., priority 2016, dated 2019)

Tested on: CYP3A
Test: Effect of dupilumab on PK of CYP substrate cocktail: midazolam
Conditions: oral cocktail before (Day 1) and during dupilumab 300 mg weekly (Day 36); n = 13
Description: Subcutaneous dupilumab was administered as a 600 mg loading dose on Day 8, followed by a weekly dose of 300 mg from Day 15 to Day 50. PK parameters included Geometric Mean Ratios (GMR) of AUClast (area under the plasma concentration-time curve from time zero to the time of the last quantifiable concentration) and Cmax (maximum observed plasma concentration) measured at Day 1 and Day 36, while efficacy assessments included changes in Eczema Area and Severity Index (EASI) scores (scale 0-72).

## Cc1ncc2n1-c1ccc(Cl)cc1C(c1ccccc1F)=NC2 [midazolam, reference compound]
  Geometric Mean Ratio (Day 36/Day 1), AUClast: 0.98
  Geometric Mean Ratio (Day 36/Day 1), Cmax: 1.13
